Results reported in ChEMBL document CHEMBL1201862, “PubChem BioAssay data set” (2004).
Calls of active or inactive are those of the source.

Legend:
[1] = inhibitors of clade B AD8 Env fusion, dose response, cell-based, cherry-pick (AID 652062); assay type: functional;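 further: luciferase signal from cell-cell fusion driven by HIV-1 clade B AD8 Env; potency is for inhibitors of fusion seen as a drop in luminescence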
[2] = cytotoxicity in HEK-293T cells, dose response, cytotoxicity control for TCR NF-kB inhibitor project, luminescence, T-cell screen hits (AID 489026); assay type: functional, cell-based;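 further: cells exposed to compound about 14 hours before the viability readout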
Paired box protein Pax-8 = Paired box protein Pax-8 (Homo sapiens, UniProt Q06710); assay: inhibitors of PAX8-driven TPO luciferase reporter, dose response, RMG-I cells, cherry-pick (AID 687027); assay type: functional, cell-based;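 further: luciferase reporter driven by Pax8 target thyroperoxidase promoter measured by SteadyGlo luminescence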
Chain of Paired box protein Pax-8 (Q06710 whole entry, the tested form may be a part): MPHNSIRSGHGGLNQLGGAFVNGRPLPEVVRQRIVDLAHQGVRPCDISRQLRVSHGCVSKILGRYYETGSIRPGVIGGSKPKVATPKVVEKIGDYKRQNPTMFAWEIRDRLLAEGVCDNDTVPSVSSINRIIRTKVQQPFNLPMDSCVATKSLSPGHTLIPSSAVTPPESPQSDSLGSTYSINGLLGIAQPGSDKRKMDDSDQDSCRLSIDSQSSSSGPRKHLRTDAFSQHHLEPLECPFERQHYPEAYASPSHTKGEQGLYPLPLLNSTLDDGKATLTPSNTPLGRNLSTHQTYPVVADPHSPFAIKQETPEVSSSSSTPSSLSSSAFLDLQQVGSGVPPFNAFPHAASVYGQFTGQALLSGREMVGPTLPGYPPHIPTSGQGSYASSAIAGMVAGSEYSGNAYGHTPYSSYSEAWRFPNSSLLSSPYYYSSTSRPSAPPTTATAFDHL

[3] = CEM21 lymphoblast cell cytotoxicity, dose response, cytotoxicity control for viral fusion inhibitor project, CellTiter-Glo luminescence, cherry-picked (AID 652042); assay type: functional, cell-based;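 further: potency for signal decrease meaning cytotoxicity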
[4] = inhibitors of HIV Env-driven cell fusion, dose response, cherry-pick (AID 652057); assay type: functional, cell-based
[5] = target: T1, Calpain-2 catalytic subunit (Sus scrofa, UniProt P43367); assay: pig calpain II inhibitor potency, dose response, biochemical, fluorogenic peptide substrate (AID 1420); assay type: functional
T1 sequence (P43367 whole entry): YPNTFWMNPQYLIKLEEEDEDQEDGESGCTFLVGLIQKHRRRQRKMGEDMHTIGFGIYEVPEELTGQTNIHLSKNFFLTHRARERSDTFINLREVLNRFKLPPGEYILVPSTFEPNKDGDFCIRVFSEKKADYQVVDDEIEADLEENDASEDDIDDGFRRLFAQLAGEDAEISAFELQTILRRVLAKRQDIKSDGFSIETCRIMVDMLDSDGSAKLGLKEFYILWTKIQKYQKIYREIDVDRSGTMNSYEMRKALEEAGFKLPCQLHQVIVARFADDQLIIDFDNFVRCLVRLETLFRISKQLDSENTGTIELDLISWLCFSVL

[6] = ZM109 Env clade C HIV-1 fusion inhibitors, dose response, HeLa effector, CEM target cells, luciferase, cherry-pick (AID 652058); assay type: functional, cell-based
[7] = off-target signal loss in HeLa-CEM21 co-culture – HeLa F-luc CTL cells, cherry-picked, counter-screen for HIV-1 Env fusion inhibitor project, dose response (AID 652040); assay type: functional, cell-based;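 further: potency for signal decrease marking cytotoxic or nonspecific inhibition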
Cytochrome P450 2D6 = Cytochrome P450 2D6 (Homo sapiens, UniProt P10635);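 further: CYP2D6 member of a cytochrome P450 panel assay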
Cytochrome P450 2C9 = Cytochrome P450 2C9 (Homo sapiens, UniProt P11712)
[8] = target: T2, Endoribonuclease toxin MazF (Escherichia coli K-12, UniProt P0AE70); assay: MazF toxin RNase activators, dose response, biochemical, fluorescence, single-stranded RNA substrate, uHTS hits (AID 588481); assay type: functional
T2 sequence (P0AE70 whole entry): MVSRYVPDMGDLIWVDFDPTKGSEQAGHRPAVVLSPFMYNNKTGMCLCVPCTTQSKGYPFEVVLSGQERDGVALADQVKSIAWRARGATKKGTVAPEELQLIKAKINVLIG

[9] = target: T3, Corticotropin-releasing factor receptor 2/Corticotropin-releasing factor-binding protein (Homo sapiens, UniProt P24387+Q13324); assay: activators of CRF receptor 2 with binding protein – uHTS hits, confirmation (AID 602473); assay type: functional; details: read-out: EC50_Mean
T3 sequence (Q13324 whole entry): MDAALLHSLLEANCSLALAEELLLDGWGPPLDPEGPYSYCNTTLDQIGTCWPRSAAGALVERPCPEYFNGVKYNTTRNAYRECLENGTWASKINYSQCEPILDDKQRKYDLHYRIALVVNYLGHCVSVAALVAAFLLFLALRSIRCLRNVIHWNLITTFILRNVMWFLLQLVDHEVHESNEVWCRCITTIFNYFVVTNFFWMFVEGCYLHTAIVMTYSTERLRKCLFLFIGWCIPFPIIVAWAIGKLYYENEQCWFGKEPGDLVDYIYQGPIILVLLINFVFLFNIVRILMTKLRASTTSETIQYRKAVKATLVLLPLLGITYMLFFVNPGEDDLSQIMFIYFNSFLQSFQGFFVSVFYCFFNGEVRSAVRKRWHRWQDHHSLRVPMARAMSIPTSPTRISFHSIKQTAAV
T3 sequence (P24387 whole entry): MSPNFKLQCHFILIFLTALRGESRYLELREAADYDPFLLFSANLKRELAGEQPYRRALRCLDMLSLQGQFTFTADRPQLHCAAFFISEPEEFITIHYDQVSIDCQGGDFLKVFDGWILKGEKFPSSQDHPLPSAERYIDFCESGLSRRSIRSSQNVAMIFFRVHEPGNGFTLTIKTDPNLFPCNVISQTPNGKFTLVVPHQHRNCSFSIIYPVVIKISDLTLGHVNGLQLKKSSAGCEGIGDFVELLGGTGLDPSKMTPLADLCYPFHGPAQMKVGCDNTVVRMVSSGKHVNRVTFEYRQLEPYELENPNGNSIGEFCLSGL

[10] = target: T2, Endoribonuclease toxin MazF; assay: fluorescent RNA oligo signal without MazF, dose response, counter-screen for MazEF activator project, biochemical, fluorescence, single-stranded RNase substrate (AID 588502); assay type: functional
[11] = target: T3, Corticotropin-releasing factor receptor 2/Corticotropin-releasing factor-binding protein; assay: Dose Response confirmation of uHTS hits for small molecule antagonists of the CRF-binding protein and CRF-R2 receptor complex.; assay type: functional; details: read-out: IC50_Mean
[12] = HeLa cell cytotoxicity, dose response, cytotoxicity control for MgcRacGAP inhibitor project (AID 624300); assay type: functional
[13] = target: T4, Rac GTPase-activating protein 1 (Homo sapiens, UniProt Q9H0H5); assay: MgcRacGAP GTPase-activating activity inhibitors, confirmation, biochemical, ADP Hunter fluorescence, primary and confirmatory (AID 624330); assay type: functional
T4 sequence (Q9H0H5 whole entry): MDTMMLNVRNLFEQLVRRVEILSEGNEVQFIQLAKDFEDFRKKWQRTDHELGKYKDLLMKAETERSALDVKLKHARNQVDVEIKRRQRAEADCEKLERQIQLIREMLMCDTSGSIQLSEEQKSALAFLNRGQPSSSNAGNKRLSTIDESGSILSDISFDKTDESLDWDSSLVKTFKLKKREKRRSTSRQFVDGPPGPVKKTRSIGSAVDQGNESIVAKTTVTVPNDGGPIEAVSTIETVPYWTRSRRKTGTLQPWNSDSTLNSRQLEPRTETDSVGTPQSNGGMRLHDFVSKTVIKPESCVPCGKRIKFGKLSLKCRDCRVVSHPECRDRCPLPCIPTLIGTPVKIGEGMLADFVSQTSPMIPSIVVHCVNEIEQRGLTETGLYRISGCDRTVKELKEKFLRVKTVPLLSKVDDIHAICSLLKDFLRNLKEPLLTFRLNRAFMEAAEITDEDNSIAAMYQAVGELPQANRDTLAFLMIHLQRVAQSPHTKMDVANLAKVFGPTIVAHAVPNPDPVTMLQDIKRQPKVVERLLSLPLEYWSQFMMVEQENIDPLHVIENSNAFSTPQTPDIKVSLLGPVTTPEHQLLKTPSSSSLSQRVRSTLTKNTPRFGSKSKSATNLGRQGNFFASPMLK

[14] = target: Ras and Rab interactor 1/Tyrosine-protein kinase ABL1 (Homo sapiens, UniProt P00519+Q13671); assay type: functional;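 further: biochemical TR-FRET dose-response test measuring inhibition of binding between Rin1 and Abl proteins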
Chain of Ras and Rab interactor 1/Tyrosine-protein kinase ABL1 (P00519 whole entry): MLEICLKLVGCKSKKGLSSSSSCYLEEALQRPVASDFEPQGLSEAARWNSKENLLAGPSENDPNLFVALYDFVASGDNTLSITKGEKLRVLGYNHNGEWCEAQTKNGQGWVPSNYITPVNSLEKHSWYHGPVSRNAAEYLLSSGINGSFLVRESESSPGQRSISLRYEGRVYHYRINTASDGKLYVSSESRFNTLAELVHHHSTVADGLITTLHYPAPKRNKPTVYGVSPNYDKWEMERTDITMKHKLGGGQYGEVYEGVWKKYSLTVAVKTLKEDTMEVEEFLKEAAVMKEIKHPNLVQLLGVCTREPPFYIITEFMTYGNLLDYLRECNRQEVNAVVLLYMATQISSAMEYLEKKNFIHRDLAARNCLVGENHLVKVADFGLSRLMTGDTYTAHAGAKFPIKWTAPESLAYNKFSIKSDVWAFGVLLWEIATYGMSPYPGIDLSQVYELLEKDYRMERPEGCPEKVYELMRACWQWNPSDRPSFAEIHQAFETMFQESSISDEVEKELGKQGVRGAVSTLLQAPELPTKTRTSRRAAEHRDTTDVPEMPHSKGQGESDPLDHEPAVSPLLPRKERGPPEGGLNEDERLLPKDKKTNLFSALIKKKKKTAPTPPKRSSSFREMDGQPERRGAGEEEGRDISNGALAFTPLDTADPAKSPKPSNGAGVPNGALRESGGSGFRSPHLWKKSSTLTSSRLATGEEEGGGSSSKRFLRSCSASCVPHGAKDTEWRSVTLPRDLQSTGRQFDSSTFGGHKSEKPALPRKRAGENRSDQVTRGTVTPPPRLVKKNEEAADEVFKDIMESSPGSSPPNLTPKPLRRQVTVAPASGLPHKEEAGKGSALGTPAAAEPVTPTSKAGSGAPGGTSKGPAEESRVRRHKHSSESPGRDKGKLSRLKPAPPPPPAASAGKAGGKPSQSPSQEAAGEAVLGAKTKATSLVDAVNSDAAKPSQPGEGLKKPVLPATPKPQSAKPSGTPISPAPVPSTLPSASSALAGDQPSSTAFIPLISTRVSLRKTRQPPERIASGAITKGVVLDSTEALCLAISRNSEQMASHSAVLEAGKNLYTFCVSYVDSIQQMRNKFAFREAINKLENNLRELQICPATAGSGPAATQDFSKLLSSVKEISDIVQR
Chain of Ras and Rab interactor 1/Tyrosine-protein kinase ABL1 (Q13671 whole entry): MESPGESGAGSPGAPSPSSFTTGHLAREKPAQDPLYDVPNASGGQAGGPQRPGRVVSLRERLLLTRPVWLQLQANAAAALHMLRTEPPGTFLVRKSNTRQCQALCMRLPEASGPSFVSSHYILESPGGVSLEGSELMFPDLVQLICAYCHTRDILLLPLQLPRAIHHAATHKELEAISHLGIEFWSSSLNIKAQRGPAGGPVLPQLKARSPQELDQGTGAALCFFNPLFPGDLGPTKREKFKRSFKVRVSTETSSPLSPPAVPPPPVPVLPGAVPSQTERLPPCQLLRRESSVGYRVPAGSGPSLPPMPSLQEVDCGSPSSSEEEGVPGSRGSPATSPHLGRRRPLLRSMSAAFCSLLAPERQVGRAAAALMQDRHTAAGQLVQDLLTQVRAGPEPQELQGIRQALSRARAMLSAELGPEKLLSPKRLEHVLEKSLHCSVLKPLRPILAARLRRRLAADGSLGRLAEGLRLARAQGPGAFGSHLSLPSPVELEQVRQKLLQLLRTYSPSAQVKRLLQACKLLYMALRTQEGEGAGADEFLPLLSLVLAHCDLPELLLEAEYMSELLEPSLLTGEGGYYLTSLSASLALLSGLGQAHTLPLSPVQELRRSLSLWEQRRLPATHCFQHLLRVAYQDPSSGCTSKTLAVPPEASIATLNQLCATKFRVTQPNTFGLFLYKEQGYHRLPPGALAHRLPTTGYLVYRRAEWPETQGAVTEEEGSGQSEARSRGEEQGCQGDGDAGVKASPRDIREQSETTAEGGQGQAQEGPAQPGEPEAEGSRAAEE

cells [15] = assay type: functional, cell-based
cells [16] = assay type: functional, cell-based; remark: listed apart in the source
Fatty acid synthase [17] = target: T5, Fatty acid synthase (Homo sapiens, UniProt P49327); assay: FAS thioesterase domain inhibitors, dose response, biochemical, kinetic fluorescence intensity (AID 624326); assay type: functional;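 further: rate of fluorescence rise from hydrolysis of a fluorogenic O-methyl fluorescein ester substrate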
T5 sequence (P49327 whole entry, the tested form may be a part): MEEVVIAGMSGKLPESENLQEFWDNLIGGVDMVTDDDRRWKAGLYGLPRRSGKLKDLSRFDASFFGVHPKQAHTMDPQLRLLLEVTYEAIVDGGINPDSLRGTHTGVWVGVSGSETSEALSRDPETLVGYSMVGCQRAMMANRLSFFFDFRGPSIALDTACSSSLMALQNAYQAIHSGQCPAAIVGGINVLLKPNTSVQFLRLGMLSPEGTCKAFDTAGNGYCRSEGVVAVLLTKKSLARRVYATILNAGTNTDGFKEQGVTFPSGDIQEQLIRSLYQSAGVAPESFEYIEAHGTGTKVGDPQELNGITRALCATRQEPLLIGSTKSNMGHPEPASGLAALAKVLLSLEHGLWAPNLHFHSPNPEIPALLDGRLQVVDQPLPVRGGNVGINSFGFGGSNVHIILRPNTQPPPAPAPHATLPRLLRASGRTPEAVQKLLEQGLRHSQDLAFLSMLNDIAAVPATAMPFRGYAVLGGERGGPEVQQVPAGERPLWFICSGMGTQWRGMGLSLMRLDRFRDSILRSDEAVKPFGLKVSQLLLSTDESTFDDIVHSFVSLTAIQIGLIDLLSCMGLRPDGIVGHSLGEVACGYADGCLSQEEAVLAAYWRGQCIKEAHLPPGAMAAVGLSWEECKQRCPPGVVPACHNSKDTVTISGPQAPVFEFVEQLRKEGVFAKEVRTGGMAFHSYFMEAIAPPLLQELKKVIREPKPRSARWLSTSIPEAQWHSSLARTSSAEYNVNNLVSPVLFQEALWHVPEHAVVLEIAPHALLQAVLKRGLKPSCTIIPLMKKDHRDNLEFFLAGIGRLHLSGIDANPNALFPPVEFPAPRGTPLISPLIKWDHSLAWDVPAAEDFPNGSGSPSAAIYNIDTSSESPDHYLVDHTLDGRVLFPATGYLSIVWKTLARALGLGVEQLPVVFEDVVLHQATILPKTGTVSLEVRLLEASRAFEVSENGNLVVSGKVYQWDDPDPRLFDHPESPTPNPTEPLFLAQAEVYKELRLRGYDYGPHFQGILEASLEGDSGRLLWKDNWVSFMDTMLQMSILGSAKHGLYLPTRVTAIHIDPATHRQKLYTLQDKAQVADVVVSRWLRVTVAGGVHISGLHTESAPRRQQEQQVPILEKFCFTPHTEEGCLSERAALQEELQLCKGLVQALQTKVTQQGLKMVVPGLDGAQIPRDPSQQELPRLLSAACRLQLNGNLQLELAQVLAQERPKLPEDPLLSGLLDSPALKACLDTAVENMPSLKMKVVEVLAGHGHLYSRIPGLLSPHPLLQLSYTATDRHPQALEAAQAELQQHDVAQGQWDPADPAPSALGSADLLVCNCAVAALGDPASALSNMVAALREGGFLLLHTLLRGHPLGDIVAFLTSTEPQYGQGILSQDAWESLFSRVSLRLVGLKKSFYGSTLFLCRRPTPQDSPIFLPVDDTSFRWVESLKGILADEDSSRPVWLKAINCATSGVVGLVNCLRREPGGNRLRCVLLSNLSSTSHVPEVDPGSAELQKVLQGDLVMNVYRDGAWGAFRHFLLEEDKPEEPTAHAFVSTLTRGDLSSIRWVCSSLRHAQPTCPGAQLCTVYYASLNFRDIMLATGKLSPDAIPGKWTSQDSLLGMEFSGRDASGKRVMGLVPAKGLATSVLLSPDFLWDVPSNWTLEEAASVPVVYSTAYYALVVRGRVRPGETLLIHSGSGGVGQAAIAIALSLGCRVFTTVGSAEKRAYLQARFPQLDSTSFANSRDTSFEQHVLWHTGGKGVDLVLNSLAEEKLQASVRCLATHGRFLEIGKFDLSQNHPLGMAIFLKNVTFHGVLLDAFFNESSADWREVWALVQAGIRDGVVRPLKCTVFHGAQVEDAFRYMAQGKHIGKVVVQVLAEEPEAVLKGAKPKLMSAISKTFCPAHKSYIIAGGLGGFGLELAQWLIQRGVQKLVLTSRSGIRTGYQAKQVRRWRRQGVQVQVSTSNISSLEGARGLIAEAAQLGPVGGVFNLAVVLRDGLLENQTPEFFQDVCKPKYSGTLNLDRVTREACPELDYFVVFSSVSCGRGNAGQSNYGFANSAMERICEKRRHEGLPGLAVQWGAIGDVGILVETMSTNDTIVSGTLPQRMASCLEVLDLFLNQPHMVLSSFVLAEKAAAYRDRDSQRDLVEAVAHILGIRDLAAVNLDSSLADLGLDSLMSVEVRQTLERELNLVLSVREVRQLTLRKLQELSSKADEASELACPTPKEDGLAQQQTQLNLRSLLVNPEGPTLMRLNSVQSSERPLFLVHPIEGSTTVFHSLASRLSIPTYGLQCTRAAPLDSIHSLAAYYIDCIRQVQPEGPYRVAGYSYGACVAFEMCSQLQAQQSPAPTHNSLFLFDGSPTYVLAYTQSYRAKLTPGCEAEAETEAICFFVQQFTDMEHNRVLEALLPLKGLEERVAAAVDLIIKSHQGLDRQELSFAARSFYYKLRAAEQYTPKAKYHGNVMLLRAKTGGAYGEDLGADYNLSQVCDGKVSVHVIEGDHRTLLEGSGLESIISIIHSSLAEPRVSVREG

[18] = microbe, parasite or virus in culture; assay type: functional; details: Mycobacterium tuberculosis
Fatty acid synthase [19] = target: T5, Fatty acid synthase; assay: FAS thioesterase domain inhibitors, dose response, biochemical, endpoint fluorescence intensity, uHTS hits (AID 624327); assay type: functional;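 further: fluorescence from hydrolysis of an O-methyl fluorescein acyl ester substrate by the enzyme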

For COc1cc(-c2c(-c3cc(OC)c(OC)c(OC)c3)noc2C)ccc1F, the AC50 [1] was 29.7 µM (active), the IC50 [2] was 75.9 µM (inactive) and the AC50 (Paired box protein Pax-8) was 2.78 µM (active). The AC50 [3] was 21.3 µM (active).

For CCC(C(=O)c1ccccc1)N(C(=O)c1ccccc1Cl)N1C(=O)C2C3C=CC(C3)C2C1=O (centres undefined), the AC50 [4] was 4.55 µM (active), the AC50 [1] was 27.5 µM (active) and the IC50 [5] was 24.3 µM (not active). The AC50 [6] was 6.01 µM (active), the AC50 [7] was 7.95 µM (active) and the AC50 (Cytochrome P450 2D6) was 7.08 µM (inconclusive). For the same compound, the AC50 (Cytochrome P450 2C9) was 10 µM (inconclusive).

In the case of Cc1ccccc1Cn1cccc1/C=C1/C(=N)N2C=CSC2=NC1=O, the EC50 [8] is reported as > 99 µM (inactive), the EC50 [9] is reported as > 53 µM (inactive) and the EC50 [10] is reported as > 99 µM (inactive). The IC50 [11] was > 47.1 µM (inactive).

In the case of Cc1ccc(-c2cnc(NCc3cc4c(cc3[N+](=O)[O-])OCO4)n2C)cc1C, the CC50 [12] is reported as 100 µM (active) and the IC50 [13] is reported as 77.6 µM (active).

For CC(C)(C)n1nnnc1C(c1cccnc1)N(Cc1ccccc1)Cc1cccs1 (centres undefined), the AC50 [4] was 5.51 µM (active), the AC50 [1] was 17.5 µM (active) and the AC50 [6] was 7 µM (active). The AC50 [7] was 8.29 µM (active) and the AC50 [3] was 52.5 µM (active).

For C[C@@H]1CCCCO[C@@H](CN(C)S(=O)(=O)c2cccs2)[C@@H](C)CN([C@H](C)CO)C(=O)c2cc(NS(=O)(=O)c3ccccc3)ccc2O1, the IC50 [14] was 1.27 µM (active).

In the case of CCOC(=O)/C(=N\Nc1ccc(C(C)=O)cc1)c1csc(Nc2ccccc2)n1, the EC50 [8] is reported as > 99 µM (inactive), the EC50 [9] is reported as 18.3 µM (active) and the EC50 [10] is reported as 38.1 µM (inactive).

With CCCOc1ccc(/C=N/NC(=O)CSc2ccccn2)cc1OC the IC50 [14] was 12 µM (inactive), the EC50 (cells [15]) was > 350 µM (not active) and the EC50 (cells [16]) was > 350 µM (not active).

With CCOC(=O)N1CCN(C(=O)C[C@H]2C[C@@]3(C(=O)OC)C(=C[C@H](C(C)(C)C)O[C@@H]3C)N(CCC3=CCCCC3)C2=O)CC1 the AC50 [4] was 2.49 µM (active), the AC50 [1] was 3.46 µM (active) and the AC50 [6] was 3.45 µM (active). For the same compound, the AC50 [7] was 4.21 µM (active) and the AC50 [3] was 25.6 µM (active).

With COc1cc(/C=N/N(C)c2ccccc2)cc(Cl)c1O the IC50 (Fatty acid synthase [17]) was 5.46 µM (active), the CC50 [18] was > 40 µM (active) and the CC50 [12] was 100 µM (active). The IC50 (Fatty acid synthase [19]) was 4.5 µM (active) and the IC50 [13] was 38.2 µM (active).
